Laboratory results published in patent publication US11767313B2, “Compounds as nuclear transport modulators and uses thereof” (XWPHARMA LTD., priority 2018, dated 2023).
Read-outs that look alike come from different tables or passages of the source.

Tests used:
[1] = Pharmacokinetic profile summary; format: in vivo, mice or rats
Description: (§1) Blood was collected from mice (n=3, or 5) to contribute to the total of 10 time points (pre-dose, 5 min, 15 min, 30 min, 1 hour, 2 hours, 4 hours, 8 hours, 12 hours and 24 hours). At the designated time points, animals were anaesthetized under isoflurane, and approximately 110 μL of blood per time point was collected via retro-orbital puncture into pre-cooled K2EDTA tubes. Blood samples were put on wet ice and centrifuged (2000 g, 5 min at 4° C.) to obtain plasma within 30 minutes of sample collection. All samples were stored frozen at approximately −80° C. until analysis. Prior to analysis, samples were mixed with internal standard in acetonitrile, vortexed, centrifuged, and supernatant was injected for analysis. Concentration of compounds in plasma was determined using LC-MS-MS instrumentation (API 4000, Triple Quadrupole LC/MS/MS Mass Spectrometer). AUC values were calculated using Phoenix Win Nonlin 6.3 software package, PO-Noncompartmental model 200 (extravascular input).
(§2) Following collection, brain tissue was rinsed with cold saline, dried on filter paper, weighed and snap-frozen by placing on dry ice. All samples were stored frozen at approximately −80° C. until analysis. At the time of analysis, brain tissue was homogenized (homogenizing solution PBS, pH 7.4), mixed with internal standard in acetonitrile, vortexed, centrifuged, and supernatant was injected for analysis. Concentration of compounds in plasma was determined using LC-MS-MS instrumentation (API 4000, Triple Quadrupole LC/MS/MS Mass Spectrometer). Plasma samples were treated with the identical method (except homogenization step) and the concentration of compound in each matrix was calculated based on generated standard curves.
The pharmacokinetic profile of test compounds in mice or rats was determined from several test compounds was determined using the methods described in Example 22.

[2] = Pharmacokinetic profile in plasma; format: in vivo; conditions: mouse, iv, I. V., mice
[3] = biological target: XPO1 (Homo sapiens, UniProt O14980); assay: REV-GFP translocation assay in U2OS cells; format: cell-based; set-up: endogenous in cells; host or cells: U2OS cells stably expressing REV-GFP (clones from HD Biosciences); conditions: for IC50: Table 10
Sequence of XPO1 (O14980 whole entry): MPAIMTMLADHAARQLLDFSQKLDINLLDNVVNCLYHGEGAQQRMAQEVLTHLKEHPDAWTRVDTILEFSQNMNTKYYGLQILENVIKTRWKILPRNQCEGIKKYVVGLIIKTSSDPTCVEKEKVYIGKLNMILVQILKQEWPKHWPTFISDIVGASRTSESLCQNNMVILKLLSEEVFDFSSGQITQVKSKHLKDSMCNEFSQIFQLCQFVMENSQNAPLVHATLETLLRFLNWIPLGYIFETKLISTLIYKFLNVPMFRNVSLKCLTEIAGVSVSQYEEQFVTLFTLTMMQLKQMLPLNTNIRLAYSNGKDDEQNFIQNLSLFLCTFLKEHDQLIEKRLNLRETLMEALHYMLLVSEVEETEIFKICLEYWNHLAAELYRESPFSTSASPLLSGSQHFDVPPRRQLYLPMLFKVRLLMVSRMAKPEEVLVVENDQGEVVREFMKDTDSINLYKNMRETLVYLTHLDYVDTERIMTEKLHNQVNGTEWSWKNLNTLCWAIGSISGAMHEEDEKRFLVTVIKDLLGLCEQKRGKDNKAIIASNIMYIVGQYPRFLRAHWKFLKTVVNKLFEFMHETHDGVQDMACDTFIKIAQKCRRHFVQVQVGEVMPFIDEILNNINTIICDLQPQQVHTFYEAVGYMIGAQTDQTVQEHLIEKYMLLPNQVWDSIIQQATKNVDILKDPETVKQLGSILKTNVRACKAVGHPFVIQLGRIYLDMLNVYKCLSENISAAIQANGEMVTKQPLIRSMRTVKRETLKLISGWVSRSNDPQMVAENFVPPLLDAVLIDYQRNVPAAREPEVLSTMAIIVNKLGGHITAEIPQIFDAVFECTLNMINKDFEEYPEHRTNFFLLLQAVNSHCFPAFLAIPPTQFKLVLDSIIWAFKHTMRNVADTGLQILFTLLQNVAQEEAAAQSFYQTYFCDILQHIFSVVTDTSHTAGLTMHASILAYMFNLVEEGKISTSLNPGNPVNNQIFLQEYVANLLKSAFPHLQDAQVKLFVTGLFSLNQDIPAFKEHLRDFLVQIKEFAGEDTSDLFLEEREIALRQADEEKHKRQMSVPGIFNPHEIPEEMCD
Description: LTD in China, and cells were cultured with growth medium. […] The highest Leptomycin B (LMB) concentration was set to 50 nM and serially diluted as the positive control, while the highest concentrations of other compounds were set to 10 μM. The cells treated with various drugs or DMSO, were incubated at 37° C. and 5% CO2 for 1 h. Then, cells were fixed with 4% formaldehyde for 15 min at room temperature. The cells were washed and stained with 100 μL Hoechst 33342 working solution for 10 min at room temperature in dark, after which the cell fluorescence was imaged with the High-Content Imaging System, ImageXpress® (Molecular Devices) using the 20× objective. The filters were set for Hoechst (350/461 nm) and GFP/FITC (488/509 nm) (wavelength for excitation and emission maxima). The % effect of REV nuclear translocation was calculated with the following formula: % effect=([…]- signals from testing compounds; ILMB-signals of 50 nM LMB group; ICTRL-signals of vehicle control group.

[4] = tested on: U87MG; assay: CellTiter-Glo cell proliferation assay, U87MG; format: cell-based, human; conditions: Homo sapiens, U-87 MG
Description: (§3) CellTiter-Glo® Luminescent Cell Viability assay (with Promega CellTiter 96® Luminescent CellTiter-Glo® kit) was used to study the proliferation inhibition by test compounds. Compounds were resuspended in DMSO to make a 25 mM stock suspension. Cells of cancer cell lines or normal tissues were seeded in 96-well plates at 1,500 to 5,000 cells/well overnight. Compounds were 2- or 3-fold diluted serially to obtain 10 concentrations. Then, the drugs were added to the cell wells by Bravo (Agilent) and incubated for 72 hours. The cells were lysed by adding CellTiter-Glo® Reagent (per manufacturer's instructions) and subsequently, the luminescence was read using EnVision® (PerkinElmer).
(§4) The percent of growth was calculated as follows. DMSO-treated cells were employed as vehicle control (High control, HC) and culture medium alone was employed as background (Low control, EC). % growth=100×(Lum sample−Lum EC)/(Lum HC−Lum EC). The ICso was calculated by concentration-response curve fitting using Graphpad Prism.
(§5) Hematological cancer cell lines tested included OCI-AML3, MV-4-11, KG-1, Kasumi-1, K562, THP-1; solid cancer cell lines tested included U87MG, U251, T98G, LN229, A172, H460, H2009, A549; normal cell lines tested included HCN2 and 3T3-L1. […] However, they were not toxic to in vitro cultured normal cells.

[5] = Ratio of brain to plasma; format: in vivo; conditions: rats, 10 mg/kg PO
Description: as §2

[6] = Pharmacokinetic profile in plasma; format: in vivo; conditions: P.O., mice
Description: as §1

[7] = tested on: HCN2; assay: CellTiter-Glo cell proliferation assay, HCN2 (normal brain); format: cell-based
Description: as §3, §4, §5

[8] = tested on: U251; assay: CellTiter-Glo cell proliferation assay, U251; format: cell-based; conditions: Homo sapiens, U-251
Description: as §3, §4, §5

[9] = tested on: LN-229; assay: CellTiter-Glo cell proliferation assay, LN-229; format: cell-based; conditions: Homo sapiens, LN-229
Description: as §3, §4, §5

[10] = tested on: T98G; assay: CellTiter-Glo cell proliferation assay, T98G; format: cell-based; conditions: Homo sapiens, T98G
Description: as §3, §4, §5

[11] = 72 hours, Table 1, read-out: Growth inhibition (IC50)

## O=C(/C=C\n1cnc(-c2cc(C(F)(F)F)cc(S(F)(F)(F)(F)F)c2)n1)NNc1ccccn1 [Compound II, (Z)-3-(3-(3-(Pentafluorosulfanyl)-5-(trifluoromethyl)phenyl)-1H-1,2,4-triazol-1-yl)-N′-(pyridin-2-yl)acrylohydrazide]
[1]; mouse, brain/plasma, 5 mpk/mice/AUC Ratio, read-out: B/P ratio
  Kp: 1.58
[1]; mouse, po, 5 mg/kg, 5 mpk/mice, first number of Plasma/brain pair, read-out: Cmax/(ng/mL) Plasma
  Cmax: 1040 ng/mL
[1]; mouse, po, 5 mg/kg, 5 mpk/mice, second number of Plasma/brain pair, read-out: Cmax/(ng/mL) brain
  Cmax: 1770 ng/mL
[1]; plasma, po, 10 mg/kg, 10 mpk
  AUC: 4.15 µg·h/mL
[1]; plasma, mice or rats
  half-life: 6.9 h
[1]; po, 10 mg/kg, plasma, 10 mpk, read-out: Cmax (ng/ml) plasma/10 mpk
  Cmax: 796 ng/mL
[2]
  AUC(0-t): 1.62 µg·h/mL
  C0: 0.558 µg/mL
  clearance: 0.6 L/h/kg
  half-life: 3.82 h
[2]; read-out: MRT0-last
  MRT last: 4.76 h
[2]; read-out: Vdss
  Vd: 3.2 L/kg
[3]; REV-EGFP U2OS cells, 1 h, Table 2, read-out: Rev-GFP/EC50
  EC50: 0.0285 µM
[3]; first (or only) value of the cell
  IC50: 0.0352 µM
[3]; second value of the cell
  IC50: 0.0218 µM
[3]; Table 13, read-out: Rev-GFP assay/μM
  EC50: 0.035 µM
[4]; 72 h, U87MG, 72 hours, Table 1, read-out: Growth inhibition (IC50)
  IC50: 0.63 µM
[4]; Table 9, first value column, read-out: U87MG IC50
  IC50: 0.537 µM
[4]; Table 9, second value column, read-out: U87MG IC50
  IC50: 0.723 µM
[5]; rat, brain/plasma, 0.25 h
  Kp at 0.25 h: 0.716
[5]; rat, brain/plasma, 1 h
  Kp at 1 h: 0.954
[5]; rat, brain/plasma, 8 h
  Kp at 8 h: 1.4
[5]; 0.25 h
  brain concentration (second number of pair): 301 ng/g
  plasma concentration (first number of pair): 419 ng/g
[5]; 1 h
  brain concentration (second number of pair): 1191 ng/g
  plasma concentration (first number of pair): 1274 ng/g
[5]; 8 h
  brain concentration (second number of pair): 937 ng/g
  plasma concentration (first number of pair): 677 ng/g
[6]
  AUG0-inf: 13.905 µg·h/mL
[6]; mouse, po
  Cmax: 1.6 µg/mL
  Tmax: 2 h
  half-life: 4.72 h
[6]; mouse, po, read-out: MRT0-inf
  MRT inf: 7.84 h
[6]; mouse, po, read-out: MRT0-last
  MRT last: 6.9 h
[7]; 72 h, HCN2 normal cell line, 72 hours, Table 1, read-out: Growth inhibition (IC50)
  IC50: 44.7 µM
[7]; Table 9, read-out: HCN2 IC50
  IC50: 44.7 µM
[8]; Table 11, read-out: Absolute IC50 (μM) U251
  IC50: 2.3 µM
[8]; U251, 72 hours, Table 1, read-out: Growth inhibition (IC50)
  IC50: 2.34 µM
[9]; Table 11, read-out: Absolute IC50 (μM) LN-229
  IC50: 0.8 µM
[9]; [11]
  IC50: 0.805 µM
[10]; Table 11, read-out: Absolute IC50 (μM) T98G
  IC50: 1.9 µM
[10]; [11]
  IC50: 1.92 µM
